Source: patent US20240302368A1, “MIGRATION OF HUMAN PERIPHERAL LEUKOCYTES IN RESPONSE TO CHEMOTACTIC FACTORS DURING PREGNACY” (The Governors of the University of Alberta, priority 2021, published 2024)
Entries after “also recorded” stand apart in the source; their conditions may differ.

T1: IL-1 receptor (Mus musculus, UniProt P13504)
T1 construct: host or cells: pregnant mice, in vivo
T1 sequence (P13504 20-576): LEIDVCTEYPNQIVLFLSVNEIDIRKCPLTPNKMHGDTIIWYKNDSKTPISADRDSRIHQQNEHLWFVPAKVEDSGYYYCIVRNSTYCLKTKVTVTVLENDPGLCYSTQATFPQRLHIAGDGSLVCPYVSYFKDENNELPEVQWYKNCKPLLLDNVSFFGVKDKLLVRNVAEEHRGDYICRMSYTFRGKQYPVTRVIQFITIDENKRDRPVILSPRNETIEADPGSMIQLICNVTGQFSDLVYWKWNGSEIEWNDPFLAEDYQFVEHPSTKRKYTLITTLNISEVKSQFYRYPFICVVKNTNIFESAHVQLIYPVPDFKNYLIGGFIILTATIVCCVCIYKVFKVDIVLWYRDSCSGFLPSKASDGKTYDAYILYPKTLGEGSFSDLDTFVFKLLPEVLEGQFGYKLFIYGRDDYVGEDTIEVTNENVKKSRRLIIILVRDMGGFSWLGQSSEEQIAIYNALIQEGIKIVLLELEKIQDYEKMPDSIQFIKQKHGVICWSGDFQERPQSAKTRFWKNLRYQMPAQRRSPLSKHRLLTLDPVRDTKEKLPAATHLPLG

T2: IL-1 receptor (IL-1R) (Mus musculus, UniProt P13504)
T2 construct: host or cells: pregnant mice, in vivo
T2 sequence (P13504 20-576): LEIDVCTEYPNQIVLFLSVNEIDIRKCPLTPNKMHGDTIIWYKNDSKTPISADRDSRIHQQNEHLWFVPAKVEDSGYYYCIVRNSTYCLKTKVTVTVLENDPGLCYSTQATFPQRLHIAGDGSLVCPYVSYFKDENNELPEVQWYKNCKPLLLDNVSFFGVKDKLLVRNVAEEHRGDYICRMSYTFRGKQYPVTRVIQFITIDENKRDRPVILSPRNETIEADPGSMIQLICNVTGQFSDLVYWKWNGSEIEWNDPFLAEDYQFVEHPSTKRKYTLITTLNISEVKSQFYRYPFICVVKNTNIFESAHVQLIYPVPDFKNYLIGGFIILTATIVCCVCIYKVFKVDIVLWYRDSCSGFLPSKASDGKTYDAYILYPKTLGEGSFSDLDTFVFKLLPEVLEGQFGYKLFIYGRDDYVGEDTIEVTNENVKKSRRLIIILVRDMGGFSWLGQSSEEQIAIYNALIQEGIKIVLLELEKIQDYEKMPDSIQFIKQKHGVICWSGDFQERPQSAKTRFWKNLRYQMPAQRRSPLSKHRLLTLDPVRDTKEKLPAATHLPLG


Assays:
mouse leukocytes = test: Mouse leukocyte migration assay (mLMA) with GD 18.5 lower uterus chemoattractant; type: in vivo; conditions: GD 17 after IL-1β on GD 16, without or with rytvela, p<0.05
From the text: (§1) CD-1 mice were ordered from Charles-River Laboratories Canada (Montreal, QC, Canada) and housed by Health Sciences Laboratory Animal Services at the University of Alberta. (Edmonton, AB, Canada) on a standard diet. Six groups of mice were euthanized at GD15, 17, 18, 18.5, 19 during spontaneous labor, and post-partum (PP)-1 Four groups of mice were anesthetized under isoflurane and a 1.5 cm-tall median incision was made in the lower abdominal wall. The lower segment of the right uterine hom was exposed, IL-1β (3 μg) or vehicle (0.9% saline) was injected between two fetal membranes, and the abdominal muscle layer and skin were sutured. Rytvela (1 mgikg, Elim Biopharmaceuticals, Hayward, CA) or vehicle (0.9% saline) was injected i.p. in a total volume of 100 μL saline, the first dose of which was given 30 min prior to administration of stimuli and three doses every 12 h thereafter. Animals were monitored for the onset of preterm labor (PTL) using infrared video camera recording commencing at GD16.5. […]
(§2) Total leukocytes were isolated from whole blood using HetaSep (Stemcell Technologies Canada Inc., BC. Canada) according to the manufacturer's protocol. […] Fluorescence in each well was measured using a Fluoroskan Ascent (Thermo Fisher Scientific), and the number of chemoattracted leukocytes was calculated using 4 parameter logistic regression.

[1] = tested on: peripheral mouse leukocytes; test: Cytokine mRNA abundance in peripheral leukocytes of pregnant mice, RT-qPCR; type: in vivo; conditions: GD 17 after IL-1β on GD 16, without or with rytvela; p<0.05
From the text: as §1, with “Rytvela (1 mgikg, Elim Biopharmaceuticals, Hayward, CA) or vehicle (0.9% saline) was injected i.p. in a total volume of 100 μL saline, the first dose of which was given 30 min prior to administration of stimuli and three doses every 12 h thereafter.” left out
Total RNA was extracted from mouse whole blood using the RNeasy protect animal blood system (Qiagen, Hilden, Germany) according to the manufacturer's protocol. RNA concentration were determined using a NanoDrop 1000 spectrophotometer to measure the optical density (OD) photometrically at 280 nm and 260 nm (an OD260 nm/280 nm ratio of >1.8 was considered protein-free RNA). cDNA was synthesized from 500 ng RNA using qScript cDNA SuperMix (Quanta Biosciences, MA, USA) according to the manufacturer's protocol. […]

CD-1 mice [2] = test: Neutrophil (Ly-6G+) invasion of mouse lower uterus and fetal brain, immunohistochemistry; type: in vivo; conditions: IL-1β on GD 16 without or with rytvela; compared to sham control; p<0.05
From the text: (§3) CD-1 mice were ordered from Charles-River Laboratories Canada (Montreal, QC, Canada) and housed by Health Sciences Laboratory Animal Services at the University of Alberta. (Edmonton, AB, Canada) on a standard diet. Six groups of mice were euthanized at GD15, 17, 18, 18.5, 19 during spontaneous labor, and post-partum (PP)-1 Four groups of mice were anesthetized under isoflurane and a 1.5 cm-tall median incision was made in the lower abdominal wall. The lower segment of the right uterine hom was exposed, IL-1β (3 μg) or vehicle (0.9% saline) was injected between two fetal membranes, and the abdominal muscle layer and skin were sutured. Rytvela (1 mgikg, Elim Biopharmaceuticals, Hayward, CA) or vehicle (0.9% saline) was injected i.p. in a total volume of 100 μL saline, the first dose of which was given 30 min prior to administration of stimuli and three doses every 12 h thereafter. Animals were monitored for the onset of preterm labor (PTL) using infrared video camera recording commencing at GD16.5. Mice were euthanized at the onset of PTL or at GD17 From all ten groups of mice, lower uteri, upper uteri, placentas, fetal membranes and cervices were collected and normalized to wet tissue weight (100 mg/mL) in Dulbecco's Modified Eagle's Medium (DMEM) F-12 (Thermo Fisher Scientific, MA, USA). These tissues were homogenized by TissueLyser II (QIAGEN, Hilden, Germany) according to the manufacturer's protocol and centrifuged at 4° C., 13,000×g for 10 min to extract total protein. Maternal whole blood was collected via cardiac puncture. Whole fetuses (n=2 per dam) were also collected.
Six cryosections (7 μm) per treatment group were prepared from snap-frozen lower uteri and fetal heads (n=2 per dam) and stained for neutrophils using a goat anti-mouse Ly-6G antibody (Invitrogen, Carlsbad, CA, USA) and a rat anti-goat secondary antibody tagged with an Alexa Fluor 488 fluorescence marker (Invitrogen). Cells were counterstained using Hoechst 33342 (Thermo Fisher Scientific) and tissue homology was confirmed with a hematoxylin and eosin stain (Thermo Fisher Scientific). Four different fields (20× optical zoom) were counted per section by two observers blinded to the specimen details. Areas containing blood vessels and leukocytes within blood vessels were excluded. The arithmetic mean was calculated for each sample between the two observers. In the fetus, we focused on leukocyte invasion of the brain because of the evidence associating maternal inflammation and adverse outcomes to the fetal brain (15, 28).

[3] = mouse; cited from earlier work
IL-1 receptor = target: T1, IL-1 receptor; conditions: LPS-treated mice; cited from earlier work
CD-1 mice [4] = test: IL-1β-induced preterm birth (PTB) and fetal death in pregnant mice; type: in vivo, mouse; conditions: for fetal death: IL-1β on GD 16 without or with rytvela, fetuses at GD 17
From the text: as §3

IL-1 receptor (IL-1R) = target: T2, IL-1 receptor (IL-1R); conditions: PTB induced by IL-1β, LTA or LPS; cited from earlier work
TL leukocytes = TL leukocytes incubated with hFM conditioned medium -/+ IL-1β; double conditioned medium as chemoattractant in LMA; type: cell-based, human; conditions: TL leukocytes treated with IL-1β plus hFM explant conditioned medium; fresh TL leukocytes migrate
Method: Leukocyte migration assay (LMA). The LMA for FIGS. 6 and 7 was performed as described above with the exception that 200,000 leukocytes were placed into the upper chamber. The LMA for FIGS. 3, 5 and FIG. 10 was performed using non-commercial, 3D printed Boyden chambers that produced nearly identical results to our published work with commercial Boyden chambers with the exception that the cutoff for predicting delivery within 7 days was 4575 cells (see FIG. 10 for more information).
Leukocyte Incubation with hFM Conditioned Medium. Conditioned medium from hFM explants was prepared as described previously (23). TL leukocytes were incubated with this single conditioned medium for 1 h at 37° C. and gentle agitation using a stir bar to prevent clumping. The supernatant was isolated via density centrifugation and used as the chemoattractant in an LMA to assess the further contribution of the leukocytes to the conditioned medium. This is referred to as ‘double conditioned medium.’ The pelleted TL leukocytes were resuspended in RPMI, and their responsiveness to GCF was assessed using an LMA.

hFM explants = hFM explants treated with IL-1β; conditioned medium tested in LMA; type: cell-based, human
Method: Leukocyte migration assay (LMA). The LMA was carried out with the Modified Boyden chemotaxis chambers (AP48; Neuro Probe, Gaithersburg, MD, USA) as we published (19). The chamber is divided into the upper and lower berths. Twenty-five microliters of fetal membrane extracts were placed in the lower chamber of each well. DMEM, as a negative control, was placed in the lower chamber. A polycarbonate membrane with 3 μm pores (Neuro Probe, Gaithersburg. MD, USA) was next placed over the lower chamber, followed by a rubber gasket. Then 100,000 isolated leukocytes from whole blood of pregnant women were placed in the upper chamber of each well. The chambers were incubated for 90 min at 37′C in a humidified air incubator containing 5% CO2. After incubation, migrated leukocytes were removed from the lower chamber and put into 5 mL BD Falcon™ polystyrene round bottom tubes (Thermo Fischer Scientific K.K., Yokohama, Japan). Three hundred microliters of OptiLyse (Beckman Coulter, Beckman Coulter, Inc., Brea, CA, USA) were added to lyse RBCs, and the sample was vortexed immediately for 1 sec. The tube was incubated for 15 min at room temperature (20-25° C.) while protected from light. […] 1×PBS was added to each tube. […] The lower chamber samples were then kept covered in a 4′C cold room until quantification using flow cytometry (BD FACS Verse, BD Biosciences, Tokyo, Japan). […]

mouse lower uterus [5] = test: Mouse lower uterine chemoattractant assessed by leukocyte migration assay (LMA); type: in vivo; conditions: IL-1β on GD 16, chemoattractant on GD 17
From the text: as §1
as §2, with “regression. […]” for “regression.”

mouse lower uterus [6] = test: KC and MIP-2 protein in mouse lower uterus extracts, multiplex; type: in vivo; conditions: IL-1β on GD 16, lower uterus at GD 17
From the text: as §1, with “Rytvela (1 mgikg, Elim Biopharmaceuticals, Hayward, CA) or vehicle (0.9% saline) was injected i.p. in a total volume of 100 μL saline, the first dose of which was given 30 min prior to administration of stimuli and three doses every 12 h thereafter.” left out
Mouse lower uterus tissue was suspended in DMEM-F12 medium (Thermo Fisher Scientific Inc., Ottawa, ON, Canada) at 100 mg wet tissue weight/mL and homogenized by TissueLyser II (Qiagen, Hilden, Germany) according to the manufacturer's instructions. […] Keratinocyte chemoattractant (KC) and macrophage inflammatory protein (MIP)-2 levels were measured by Bio-Plex Multiplex Immunoassay kit (Bio-Rad Laboratories, Hercules, CA, USA) according to the manufacturer's instructions.

Molecule | mouse leukocyte migration (mouse leukocytes) | leukocyte mRNA abundance of IL-1β, IL-6, TNF-α and CCL2 [1] | neutrophil density in fetal brain (CD-1 mice [2]) | neutrophil density in lower (maternal) uterus (CD-1 mice [2]) | transfer from mother to fetus [3] | neutrophil infiltration (invasion) of fetal membranes (IL-1 receptor) | PTB (in words) (CD-1 mice [4]; FIG. 11A, n=5-7 per group) | fetal death (CD-1 mice [4]) | fetal death (CD-1 mice [4]; listed as Rytvela) | PTB rate (CD-1 mice [4]; rytvela co-administered with IL-1β (GD 16)) [%] | PTB (IL-1 receptor (IL-1R)) | leukocyte chemoattractant release (TL leukocytes) | chemoattractant release from hFM explants (hFM explants; TNL and TL hFM explants -/+ IL-1β, TL leukocytes in LMA) | TNL leukocyte sensitivity to migration after hFM explant conditioned medium (hFM explants; hFM explants pretreated with IL-1β 6 h, TNL leukocytes incubated 1 h, TL chemoattractant) | PTB rate (CD-1 mice [4]; IL-1β administered on GD 16, PTB on GD 17) [%] | lower uterine chemoattractant (mouse lower uterus [5]) | KC protein in lower uterus (mouse lower uterus [6]) | MIP-2 protein in lower uterus (mouse lower uterus [6])
rytvela | blocked | blocked | blocked the increase in neutrophil density | blocked the increase in neutrophil density | does not transfer from mother to fetus | blocked | inhibited | normal GD 17 fetuses | prevented fetal death | 0 | blocked |  |  |  |  |  |  | 
IL-1β: Interleukin (IL)-1β, mediator of infectious and sterile-inflammatory preterm birth; used to induce PTB in mice (protein, UniProt P10749 118-269, looked up) Interleukin-1 beta: VPIRQLHYRLRDEQQKSLVLSDPYELKALHLNGQNINQQVIFSMSFVQGEPSNDKIPVALGLKGKNLYLSCVMKDGTPTLQLESVDPKQYPKKKMEKRFVFNKIEVKSKVEFESAEFPNWYISTSQAEHKPVFLGNNSGQDIIDFTMESVSS | increased leukocyte migration |  | increased detection of Ly-6G+ neutrophils | increased detection of Ly-6G+ neutrophils |  |  |  | increased fetal death; also recorded: undergoing resorption |  |  |  | greater leukocyte chemoattractant release | did not promote more chemoattractant release | had no effect | 86 | did not stimulate an increase | stimulated increases | stimulated increases
